Test results published in article PMC8557913, “Characterization of Phosphopantetheinyl Hydrolase from Mycobacterium tuberculosis” (Microbiology Spectrum, 2021).

Legend:
Sfp = biological target: T1, Sfp (Bacillus subtilis, UniProt P39135); assay: transfer of biotin-labelled Ppt to apo-carrier protein, streptavidin blot; format: biochemical; conditions: labelled compound; co-substrate apo-AcpM (also PKS13 ACP, EcEntB, EcACP, KpACP, PaACP); 50 mM Tris-HCl pH 7.5, 15 mM MgCl2, 37°C
T1 sequence (P39135 1-224): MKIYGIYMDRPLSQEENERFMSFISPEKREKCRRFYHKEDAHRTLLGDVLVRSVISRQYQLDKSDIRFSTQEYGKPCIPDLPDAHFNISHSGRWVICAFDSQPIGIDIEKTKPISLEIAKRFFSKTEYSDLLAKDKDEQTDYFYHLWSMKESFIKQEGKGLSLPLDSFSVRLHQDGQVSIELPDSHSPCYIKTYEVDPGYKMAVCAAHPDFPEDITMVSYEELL

PptH (Rv2795c) = PptH (Rv2795c) (Mycobacterium tuberculosis, UniProt I6YEE1); assay: biochemical
Sequence of PptH (Rv2795c) (I6YEE1 1-310): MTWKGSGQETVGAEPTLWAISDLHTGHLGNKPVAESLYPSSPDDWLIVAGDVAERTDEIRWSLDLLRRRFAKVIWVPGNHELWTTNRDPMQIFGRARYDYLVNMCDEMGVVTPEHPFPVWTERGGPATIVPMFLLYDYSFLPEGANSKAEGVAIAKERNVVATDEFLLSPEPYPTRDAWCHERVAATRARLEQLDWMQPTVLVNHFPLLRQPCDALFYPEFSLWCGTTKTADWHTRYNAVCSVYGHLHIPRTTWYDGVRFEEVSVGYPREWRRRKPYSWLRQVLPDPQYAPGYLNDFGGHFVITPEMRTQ

SMILES: CC(C)(COP(=O)(O)OP(=O)(O)OC[C@H]1O[C@@H](n2cnc3c(N)ncnc32)[C@H](O)[C@@H]1OP(=O)(O)O)[C@@H](O)C(=O)NCCC(=O)NCCSCC(=O)NCCOCCOCCNC(=O)CCCC[C@@H]1SC[C@@H]2NC(=O)N[C@@H]21 [biotin-PEG-ACM-CoA]
- transfer of biotin-labelled Ppt to apo-carrier protein, streptavidin blot (Sfp): Upon incubation of the *CoA probe with apo-AcpM and Sfp

SMILES: Nc1ncnc2c1ncn2[C@@H]1O[C@H](COP(=O)(O)O)[C@@H](O)[C@H]1O [AMP]
- IC50 (PptH (Rv2795c)): 456 µM
